One block for each compound: values may come before it. Active and inactive are the calls of the source. The calls are words filed in the database; no cut-off is given here.
Legend:
[1] = molecular target: T1, Tryptophan 5-hydroxylase 1 (Homo sapiens, UniProt P17752); assay: Inhibition of TPH1
T1 sequence (P17752 whole entry): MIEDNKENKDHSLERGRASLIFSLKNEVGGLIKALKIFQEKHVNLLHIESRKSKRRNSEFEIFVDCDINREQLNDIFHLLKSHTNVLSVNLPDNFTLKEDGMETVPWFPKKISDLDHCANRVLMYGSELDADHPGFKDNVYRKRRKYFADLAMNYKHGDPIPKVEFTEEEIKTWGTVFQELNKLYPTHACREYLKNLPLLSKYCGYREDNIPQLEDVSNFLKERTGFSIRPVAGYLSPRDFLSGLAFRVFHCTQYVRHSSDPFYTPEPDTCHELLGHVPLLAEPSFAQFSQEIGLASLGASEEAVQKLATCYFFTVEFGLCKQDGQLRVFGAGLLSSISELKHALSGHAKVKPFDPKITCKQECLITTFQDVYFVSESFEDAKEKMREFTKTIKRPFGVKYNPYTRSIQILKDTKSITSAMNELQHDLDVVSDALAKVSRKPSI

Mus musculus [2] = assay: Reduction of 5HT level in mouse intestine at 45 mg/kg, po twice a day after 3 days; assay type: functional, organism-based; set-up: dose 45 mg/kg
Mus musculus [3] = assay: Reduction of 5HT level in mouse intestine at 90 mg/kg, po twice a day after 3 days; assay type: functional, organism-based; set-up: dose 90 mg/kg
Mus musculus [4] = assay: Reduction of 5HT level in mouse brain at 45 mg/kg, po twice a day after 3 days; assay type: functional, organism-based; set-up: dose 45 mg/kg
Mus musculus [5] = assay: Reduction of 5HT level in mouse brain at 90 mg/kg, po twice a day after 3 days; assay type: functional, organism-based; set-up: dose 90 mg/kg
[6] = molecular target: T2, Tryptophan 5-hydroxylase 1 (Rattus norvegicus, UniProt P09810); assay: Inhibition of TPH1 in RBL cells assessed as inhibition of serotonin biosynthesis; assay type: cell-based
T2 sequence (P09810 whole entry): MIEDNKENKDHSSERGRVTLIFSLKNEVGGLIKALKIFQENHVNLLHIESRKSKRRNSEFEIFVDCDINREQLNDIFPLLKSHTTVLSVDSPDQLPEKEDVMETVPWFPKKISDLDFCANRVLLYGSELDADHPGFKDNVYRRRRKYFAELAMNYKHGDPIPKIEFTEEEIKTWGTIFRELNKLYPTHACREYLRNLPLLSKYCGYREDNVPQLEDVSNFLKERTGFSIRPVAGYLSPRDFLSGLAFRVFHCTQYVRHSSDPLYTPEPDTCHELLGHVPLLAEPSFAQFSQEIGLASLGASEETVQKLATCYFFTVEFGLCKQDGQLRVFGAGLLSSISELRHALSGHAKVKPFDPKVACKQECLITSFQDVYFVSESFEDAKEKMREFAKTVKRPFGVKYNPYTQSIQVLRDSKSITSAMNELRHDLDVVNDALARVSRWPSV

RBL = assay: Ratio of EC50 for TPH1 in RBL cells to IC50 for TPH1; assay type: cell-based
[7] = Volume of distribution at steady state in C57 albino mouse 1 mg/kg, iv; assay type: ADME, organism-based; set-up: dose 1 mg/kg, route intravenous; settings: in vivo, read-out: Vdss
[8] = Half life in C57 albino mouse at 1 mg/kg, iv; assay type: ADME, organism-based; set-up: dose 1 mg/kg, route intravenous; settings: in vivo
[9] = Tmax in C57 albino mouse at 10 mg/kg, po; assay type: ADME, organism-based; set-up: dose 10 mg/kg, route oral; settings: in vivo
[10] = Cmax in C57 albino mouse at 10 mg/kg, po; assay type: ADME, organism-based; set-up: dose 10 mg/kg, route oral; settings: in vivo
[11] = AUC (0 to 6 hrs) in C57 albino mouse at 1 mg/kg, iv; assay type: ADME, organism-based; set-up: time < 6 hr, dose 1 mg/kg, route intravenous; settings: plasma
[12] = AUC (0 to 24 hrs) in C57 albino mouse at 10 mg/kg, po; assay type: ADME, organism-based; set-up: time < 24 hr, dose 10 mg/kg, route oral; settings: plasma
[13] = AUC (0 to infinity) in C57 albino mouse at 1 mg/kg, iv; assay type: ADME, organism-based; set-up: time infinity, dose 1 mg/kg, route intravenous; settings: plasma
[14] = Oral bioavailability in C57 albino mouse at 10 mg/kg; assay type: ADME, organism-based; settings: in vivo
[15] = Drug level in C57 albino mouse brain at 10 mg/kg, po after 2 hrs; assay type: ADME, organism-based; set-up: dose 10 mg/kg, route oral; settings: read-out: Drug uptake
[16] = Drug level in C57 albino mouse brain at 10 mg/kg, po after 6 hrs; assay type: ADME, organism-based; set-up: dose 10 mg/kg, route oral; settings: read-out: Drug uptake
[17] = Drug level in C57 albino mouse brain after 24 hrs; assay type: ADME, tissue-based; settings: read-out: Drug uptake
Mus musculus [18] = assay: Reduction of 5HT level in mouse intestine at 30 mg/kg, po twice a day; assay type: functional; set-up: scale not given: the % may be the effect or the level left
Mus musculus [19] = assay: Reduction of 5HT level in mouse intestine at 90 mg/kg, po twice a day; assay type: functional; set-up: scale not given: the % may be the effect or the level left
Mus musculus [20] = assay: Reduction of 5HT level in mouse colon at 30 mg/kg, po twice a day; assay type: functional; set-up: scale not given: the % may be the effect or the level left
Mus musculus [21] = assay: Reduction of 5HT level in mouse colon at 90 mg/kg, po twice a day; assay type: functional; set-up: scale not given: the % may be the effect or the level left
[22] = Ratio of drug level in brain to plasma in C57 albino mouse at 10 mg/kg, po after 2 hrs; assay type: ADME, organism-based; set-up: dose 10 mg/kg, route oral; settings: read-out: BPR
[23] = Ratio of drug level in brain to plasma in C57 albino mouse at 10 mg/kg, po after 6 hrs; assay type: ADME, organism-based; set-up: dose 10 mg/kg, route oral; settings: read-out: BPR
[24] = Half life in C57 albino mouse at 10 mg/kg, po; assay type: ADME, organism-based; set-up: dose 10 mg/kg, route oral; settings: in vivo
[25] = AUC (0 to infinity) in C57 albino mouse at 10 mg/kg, po; assay type: ADME, organism-based; set-up: time infinity, dose 10 mg/kg, route oral; settings: plasma
[26] = Clearance in C57 albino mouse plasma at 1 mg/kg, iv; assay type: ADME, organism-based; set-up: dose 1 mg/kg, route intravenous

SMILES: CCOC(=O)[C@@H](N)Cc1ccc(-c2cc(OC(c3ccc(-c4cccc(F)c4)cc3)C(F)(F)F)nc(N)n2)cc1 (some centres not stated)
Activity (Mus musculus [2]): Active | Activity (Mus musculus [3]): Active | Activity (Mus musculus [4]): inactive | Activity (Mus musculus [5]): Active

SMILES: COc1ccc(CNc2cnc(-c3ccc(C[C@H](N)C(=O)O)cc3)cn2)cc1OC1CCCC1
IC50 [1]: 45 nM

SMILES: COc1ccc(CNc2ccc(-c3ccc(C[C@H](N)C(=O)O)cc3)nn2)cc1OC1CCCC1
IC50 [1]: 970 nM

SMILES: Nc1nc(OC(c2sccc2-c2ccco2)C(F)(F)F)cc(-c2ccc(C[C@H](N)C(=O)O)cc2)n1 (some centres not stated)
IC50 [1]: 54 nM | EC50 [6]: 63 nM

SMILES: COc1ccc(CNc2cnc(-c3ccc(C[C@H](N)C(=O)O)cc3)cn2)cc1OC
IC50 [1]: 69 nM

SMILES: CCn1c2ccccc2c2cc(CNc3ccc(-c4ccc(C[C@H](N)C(=O)O)cc4)nc3)ccc21
IC50 [1]: > 10000 nM

SMILES: N[C@@H](Cc1ccc(-c2cnc(NCc3ccc(-c4ccccc4)cc3)cn2)cc1)C(=O)O
IC50 [1]: 44 nM

SMILES: COc1ccc(CNc2ccc(-c3ccc(C[C@H](N)C(=O)O)cc3)cc2)cc1OC1CCCC1
IC50 [1]: > 10000 nM

SMILES: N#Cc1ccc(CNc2cnc(-c3ccc(C[C@H](N)C(=O)O)cc3)cn2)cc1
IC50 [1]: 110 nM

SMILES: N[C@@H](Cc1ccc(-c2cnc(NCC3CCc4ccccc4C3)cn2)cc1)C(=O)O (some centres not stated)
IC50 [1]: 46 nM

SMILES: Nc1nc(OC(c2ccccc2-n2ccc(C(F)(F)F)n2)C(F)(F)F)cc(-c2ccc(C[C@H](N)C(=O)O)cc2)n1 (some centres not stated)
IC50 [1]: 29 nM | EC50 [6]: 70 nM

SMILES: Cc1ccccc1-c1ccccc1CNc1cnc(-c2ccc(C[C@H](N)C(=O)O)cc2)cn1
IC50 [1]: 40 nM

SMILES: N[C@@H](Cc1ccc(-c2cnc(NCc3ccccn3)cn2)cc1)C(=O)O
IC50 [1]: 6150 nM

SMILES: Nc1nc(OC(c2ccccc2-c2ccco2)C(F)(F)F)cc(-c2ccc(C[C@H](N)C(=O)O)cc2)n1 (some centres not stated)
IC50 [1]: 24 nM | EC50 [6]: 48 nM

SMILES: Cc1cccc(-c2ccccc2C(Oc2cc(-c3ccc(C[C@H](N)C(=O)O)cc3)nc(N)n2)C(F)(F)F)c1 (some centres not stated)
IC50 [1]: 70 nM | EC50 [6]: 56 nM

SMILES: N[C@@H](Cc1ccc(-c2cnc(NCC3CCCCC3)cn2)cc1)C(=O)O
IC50 [1]: 240 nM

SMILES: Nc1nc(OC(c2ccc(-c3cccc(F)c3)cc2)C(F)(F)F)cc(-c2ccc(C[C@H](N)C(=O)O)cc2)n1 (some centres not stated)
Vd [7]: 0.73 L/kg | half-life [8]: 3.26 h | Tmax [9]: 3.25 h | Cmax [10]: 641 nM | AUC(0-t) at 6 h [11]: 6.2 µM·h | AUC(0-t) at 24 h [12]: 6.09 µM·h | AUC(0-inf) [13]: 8.54 µM·h | bioavailability [14]: 7.6% | concentration at 2 h [15]: 6.05 nM | concentration at 6 h [16]: 6.15 nM | concentration at 24 h [17]: 0.38 nM | Activity (Mus musculus [18]): 55% | Activity (Mus musculus [19]): 70% | Activity (Mus musculus [20]): 24% | Activity (Mus musculus [21]): 36% | Kp at 2 h [22]: 0.01 | Kp at 6 h [23]: 0.01 | half-life [24]: 5.98 h | AUC(0-inf) [25]: 6.5 µM·h | clearance [26]: 3.33 mL/min/kg

SMILES: CCn1c2ccccc2c2cc(CNc3cnc(-c4ccc(C[C@H](N)C(=O)O)cc4)cn3)ccc21
IC50 [1]: 31 nM

SMILES: N[C@@H](Cc1ccc(-c2cnc(NCc3ccoc3)cn2)cc1)C(=O)O
IC50 [1]: 960 nM

Now from value to compound, other results behind:

IC50 [1]: 770 nM
SMILES: C[C@@H](Nc1nc(N)nc(N2CCC(C[C@H](N)C(=O)O)CC2)n1)c1ccc2ccccc2c1

IC50 [1]: 180 nM | EC50 [6]: 510 nM
SMILES: Nc1nc(OC(c2ccc3ccccc3c2)C(F)(F)F)cc(-c2ccc(C[C@H](N)C(=O)O)cc2)n1 (some centres not stated)
Ratio (RBL): 3

IC50 [1]: 13 nM
SMILES: N[C@@H](Cc1ccc(-c2cnc(NCc3ccc4ccccc4c3)cn2)cc1)C(=O)O

IC50 [1]: 890 nM
SMILES: C[C@@H](Nc1nc(N)nc(-c2ccc(CC(N)C(=O)O)nc2)n1)c1ccc2ccccc2c1 (some centres not stated)

IC50 [1]: 190 nM
SMILES: N[C@@H](Cc1ccc(-c2cnc(NCc3cnc4ccccc4c3)cn2)cc1)C(=O)O

IC50 [1]: 200 nM
SMILES: C[C@@H](Nc1nc(N)nc(-c2ccc(CC(N)C(=O)O)c(F)c2)n1)c1ccc2ccccc2c1 (some centres not stated)

IC50 [1]: 11100 nM
SMILES: C[C@@H](Nc1nc(N)nc(-c2ccc(CC(C)(N)C(=O)O)cc2)n1)c1ccc2ccccc2c1 (some centres not stated)

IC50 [1]: 24 nM
SMILES: Nc1nc(NCc2ccc3ccccc3c2)nc(-c2ccc(C[C@H](N)C(=O)O)cc2)n1

IC50 [1]: 32 nM | EC50 [6]: 1700 nM
SMILES: C[C@@H](Nc1cc(-c2ccc(C[C@H](N)C(=O)O)cc2)nc(N)n1)c1ccc2ccccc2c1

IC50 [1]: > 11000 nM
SMILES: C[C@@H](Nc1nc(N)nc(-c2cccc(CC(N)C(=O)O)c2)n1)c1ccc2ccccc2c1 (some centres not stated)

IC50 [1]: 380 nM | EC50 [6]: 11000 nM
SMILES: C[C@@H](Oc1cc(-c2ccc(C[C@H](N)C(=O)O)cc2)nc(N)n1)c1ccc2ccccc2c1

IC50 [1]: 3770 nM
SMILES: C[C@@H](Nc1nc(N)nc(-c2ccc(C(N)CC(=O)O)cc2)n1)c1ccc2ccccc2c1 (some centres not stated)

IC50 [1]: 12600 nM
SMILES: C[C@@H](Nc1nc(N)nc(-c2ccn(C[C@H](N)C(=O)O)n2)n1)c1ccc2ccccc2c1

— ChEMBL document CHEMBL1155012, “Modulation of peripheral serotonin levels by novel tryptophan hydroxylase inhibitors for the potential treatment of functional gastrointestinal disorders” (J Med Chem, 2008)
